Patent US9120812B2, “Pyrimidooxazocine derivatives as mTOR-inhibitors” (SANOFI, priority 2012, dated 2015)

Assays:
[1] = molecular target: mTOR (human recombinant aa mTOR 1360-2549) (Homo sapiens (Human), UniProt P42345); experiment: mTOR enzymatic test by TR-FRET (phosphorylation of GFP-4EBP1); format: biochemical
Procedure, shortened: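 TR-FRET detection of GFP-4EBP1 phosphorylation by a terbium-labelled anti-phospho-Thr46 antibody. Kinase reaction ran 30 min at room temperature, was quenched with EDTA (10 mM final) plus Tb-antibody (2 nM final) and left 60 min. Emission at 520 and 490 nm after 340 nm excitation, reported as the 520/490 ratio.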

PI3Kα (p110α/p85α) = PI3Kα (p110α/p85α) (Homo sapiens (Human), UniProt P42336); experiment: PI3Kα enzymatic test by measuring the consumption of ATP; format: biochemical
Procedure, shortened: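 p110α/p85α (1.7 μg/ml) with 50 μM PIP2 and 2 μM ATP in pH 7.5 Tris buffer with EGTA, MgCl2, Chaps, DTT; reaction 90 min. Remaining ATP measured by luciferin/luciferase luminescence; IC50 from threefold serial dilutions spanning at least 10 000-fold.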

U87MG tumour cells = experiment: Test of in vitro proliferation of U87MG tumour cells; format: cell-based; settings: Homo sapiens, U-87 MG, 72 h, U87MG cells, 72 hours; read-out: U87 Cell Proliferation IC50
Protocol: Model 4: Test of in vitro Proliferation of U87MG Tumour Cells.
The cell growth is determined with the reagent CellTiter 96 AQueous One Solution Cell Proliferation Assay from Promega (Cat. No. G3581).

Akt-pS473 in U87MG cells = settings: Homo sapiens, U-87 MG, read-out: U87 Akt-pS473 % Inhibition or IC50, nM (IC50), U87MG cells

Sequence of mTOR (human recombinant aa mTOR 1360-2549) (P42345 1360-2549): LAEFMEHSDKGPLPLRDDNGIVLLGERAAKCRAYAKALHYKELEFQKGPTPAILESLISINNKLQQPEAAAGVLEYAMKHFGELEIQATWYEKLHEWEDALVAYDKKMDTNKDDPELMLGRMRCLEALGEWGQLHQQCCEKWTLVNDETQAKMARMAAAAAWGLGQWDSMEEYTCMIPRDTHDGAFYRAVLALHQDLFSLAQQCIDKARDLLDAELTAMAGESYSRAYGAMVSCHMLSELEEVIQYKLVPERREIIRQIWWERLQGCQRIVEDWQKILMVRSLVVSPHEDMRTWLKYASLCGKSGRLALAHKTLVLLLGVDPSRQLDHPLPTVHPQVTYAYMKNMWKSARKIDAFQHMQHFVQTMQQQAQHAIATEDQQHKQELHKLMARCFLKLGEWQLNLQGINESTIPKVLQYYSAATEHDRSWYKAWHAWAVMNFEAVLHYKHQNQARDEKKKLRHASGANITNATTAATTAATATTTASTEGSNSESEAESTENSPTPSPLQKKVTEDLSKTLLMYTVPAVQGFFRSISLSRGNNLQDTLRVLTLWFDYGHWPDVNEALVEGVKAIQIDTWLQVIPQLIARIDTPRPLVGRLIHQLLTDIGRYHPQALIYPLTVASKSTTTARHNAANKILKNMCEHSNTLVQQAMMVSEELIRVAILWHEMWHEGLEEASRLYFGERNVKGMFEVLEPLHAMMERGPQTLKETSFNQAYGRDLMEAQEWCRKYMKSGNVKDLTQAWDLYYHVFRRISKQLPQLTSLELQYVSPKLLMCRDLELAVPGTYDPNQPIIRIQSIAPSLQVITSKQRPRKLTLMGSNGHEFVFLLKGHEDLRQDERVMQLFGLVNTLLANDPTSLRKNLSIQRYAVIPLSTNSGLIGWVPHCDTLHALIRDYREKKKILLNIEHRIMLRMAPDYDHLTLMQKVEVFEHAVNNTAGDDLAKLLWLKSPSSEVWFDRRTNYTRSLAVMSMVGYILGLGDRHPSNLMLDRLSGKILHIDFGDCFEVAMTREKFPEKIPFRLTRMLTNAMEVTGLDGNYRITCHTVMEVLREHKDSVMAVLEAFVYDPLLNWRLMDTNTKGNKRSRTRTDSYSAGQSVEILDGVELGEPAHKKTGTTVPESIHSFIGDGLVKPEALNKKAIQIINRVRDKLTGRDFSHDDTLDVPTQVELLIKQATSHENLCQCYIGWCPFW
Sequence of PI3Kα (p110α/p85α) (P42336 whole entry): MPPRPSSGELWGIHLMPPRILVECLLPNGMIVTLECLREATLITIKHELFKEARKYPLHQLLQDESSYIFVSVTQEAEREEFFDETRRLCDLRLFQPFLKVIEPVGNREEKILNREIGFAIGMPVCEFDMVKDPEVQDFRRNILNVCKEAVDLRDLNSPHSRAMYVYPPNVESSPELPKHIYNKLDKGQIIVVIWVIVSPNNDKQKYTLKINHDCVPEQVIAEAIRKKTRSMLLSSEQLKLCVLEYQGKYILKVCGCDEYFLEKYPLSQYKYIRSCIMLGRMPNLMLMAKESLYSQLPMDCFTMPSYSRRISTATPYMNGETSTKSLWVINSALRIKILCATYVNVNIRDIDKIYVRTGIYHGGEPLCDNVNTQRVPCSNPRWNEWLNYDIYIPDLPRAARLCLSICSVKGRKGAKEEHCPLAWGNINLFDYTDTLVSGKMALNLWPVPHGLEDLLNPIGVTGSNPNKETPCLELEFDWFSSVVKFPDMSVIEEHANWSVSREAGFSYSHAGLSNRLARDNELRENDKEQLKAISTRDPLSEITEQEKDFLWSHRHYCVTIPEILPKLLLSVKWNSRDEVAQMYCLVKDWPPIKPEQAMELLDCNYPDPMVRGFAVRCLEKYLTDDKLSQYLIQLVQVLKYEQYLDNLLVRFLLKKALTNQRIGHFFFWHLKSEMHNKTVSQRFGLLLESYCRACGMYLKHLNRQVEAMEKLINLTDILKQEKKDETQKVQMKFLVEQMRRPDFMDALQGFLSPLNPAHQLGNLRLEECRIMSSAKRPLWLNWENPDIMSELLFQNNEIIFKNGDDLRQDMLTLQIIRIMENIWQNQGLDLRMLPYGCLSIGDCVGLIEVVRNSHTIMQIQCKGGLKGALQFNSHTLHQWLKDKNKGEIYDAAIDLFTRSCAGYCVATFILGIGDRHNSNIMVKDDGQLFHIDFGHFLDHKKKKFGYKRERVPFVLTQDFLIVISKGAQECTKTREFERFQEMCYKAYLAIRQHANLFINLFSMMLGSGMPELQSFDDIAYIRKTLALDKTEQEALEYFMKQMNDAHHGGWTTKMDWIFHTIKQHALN
Sequence of PI3Kα (p110α/p85α) (P27986 whole entry partner): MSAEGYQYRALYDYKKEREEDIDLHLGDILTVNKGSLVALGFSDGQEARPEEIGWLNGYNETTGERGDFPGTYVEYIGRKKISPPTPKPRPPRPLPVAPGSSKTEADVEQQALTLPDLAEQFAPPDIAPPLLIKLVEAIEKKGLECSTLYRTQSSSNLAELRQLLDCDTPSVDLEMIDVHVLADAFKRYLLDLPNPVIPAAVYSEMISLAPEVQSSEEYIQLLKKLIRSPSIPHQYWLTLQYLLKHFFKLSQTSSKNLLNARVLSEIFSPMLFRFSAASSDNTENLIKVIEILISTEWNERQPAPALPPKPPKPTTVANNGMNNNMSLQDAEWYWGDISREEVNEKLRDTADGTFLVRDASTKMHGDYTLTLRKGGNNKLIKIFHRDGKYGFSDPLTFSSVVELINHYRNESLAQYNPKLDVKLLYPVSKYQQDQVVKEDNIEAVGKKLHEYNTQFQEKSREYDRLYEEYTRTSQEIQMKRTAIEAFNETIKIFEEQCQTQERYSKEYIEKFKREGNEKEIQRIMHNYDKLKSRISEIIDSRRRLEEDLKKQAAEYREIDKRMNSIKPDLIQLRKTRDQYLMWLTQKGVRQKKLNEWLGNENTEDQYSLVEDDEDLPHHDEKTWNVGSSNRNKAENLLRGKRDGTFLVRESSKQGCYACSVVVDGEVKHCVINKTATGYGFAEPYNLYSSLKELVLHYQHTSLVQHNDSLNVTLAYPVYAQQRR

C[C@H]1COCCN1c1nc2c(c(-c3ccc(NC(=O)Nc4ccon4)c(F)c3)n1)C(=O)N(C1CCOCC1)CC(C)(C)O2 [Example 156, 1-{4-[8,8-Dimethyl-2-((S)-3-methylmorpholin-4-yl)-5-oxo-6-(tetrahydropyran-4-yl)-5,6,7,8-tetrahydro-9-oxa-1,3,6-triazabenzocyclohepten-4-yl]-2-fluorophenyl}-3-isoxazol-3-ylurea]
IC50 [1]: 27 nM | PI3Ka IC50 (PI3Kα (p110α/p85α)): 1140 nM | IC50 (U87MG tumour cells): 395 nM | IC50 (Akt-pS473 in U87MG cells): 92 nM

CCN1CC(C)(C)Oc2nc(N3CCOC[C@@H]3C)nc(-c3ccc(NC(=O)Nc4cc(OC)c(F)cc4F)cc3)c2C1=O [Example 208, 1-(2,4-Difluoro-5-methoxyphenyl)-3-{4-[6-ethyl-8,8-dimethyl-2-((S)-3-methylmorpholin-4-yl)-5-oxo-5,6,7,8-tetrahydro-9-oxa-1,3,6-triazabenzocyclohepten-4-yl]phenyl}urea]
IC50 [1]: 81 nM | PI3Ka IC50 (PI3Kα (p110α/p85α)): 1240 nM | IC50 (U87MG tumour cells): 181 nM | IC50 (Akt-pS473 in U87MG cells): 26 nM

CCN1CC(C)(C)Oc2nc(N3CCOC[C@@H]3C)nc(-c3ccc(NC(=O)Nc4ccc(N5CCN(C)CC5)cn4)cc3)c2C1=O [Example 218, 1-{4-[6-Ethyl-8,8-dimethyl-2-((S)-3-methylmorpholin-4-yl)-5-oxo-5,6,7,8-tetrahydro-9-oxa-1,3,6-triazabenzocyclohepten-4-yl]phenyl}-3-[5-(4-methylpiperazin-1-yl)pyridin-2-yl]urea]
IC50 [1]: 58 nM | PI3Ka IC50 (PI3Kα (p110α/p85α)): 1060 nM | IC50 (U87MG tumour cells): 211 nM | IC50 (Akt-pS473 in U87MG cells): 17 nM

CCN1CC(C)(C)Oc2nc(N3CC4CCC(C3)O4)nc(-c3ccc(NC(=O)Nc4ccc(OC)cn4)cc3)c2C1=O [Example 44, 1-{4-[6-Ethyl-8,8-dimethyl-2-(8-oxa-3-azabicyclo[3.2.1]oct-3-yl)-5-oxo-5,6,7,8-tetrahydro-9-oxa-1,3,6-triazabenzocyclohepten-4-yl]phenyl}-3-(5-methoxypyridin-2-yl)urea]
IC50 [1]: 34 nM | PI3Ka IC50 (PI3Kα (p110α/p85α)): >10000 nM | IC50 (U87MG tumour cells): 220 nM | IC50 (Akt-pS473 in U87MG cells): 40 nM

CCN1CC(C)(C)Oc2nc(N3CC4CCC(C3)O4)nc(-c3ccc(NC(=O)Nc4cccnc4)c(F)c3)c2C1=O [Example 223, 1-{4-[6-Ethyl-8,8-dimethyl-2-(8-oxa-3-azabicyclo[3.2.1]oct-3-yl)-5-oxo-5,6,7,8-tetrahydro-9-oxa-1,3,6-triazabenzocyclohepten-4-yl]-2-fluorophenyl}-3-pyridin-3-ylurea]
IC50 [1]: 20 nM | PI3Ka IC50 (PI3Kα (p110α/p85α)): 2070 nM | IC50 (U87MG tumour cells): 61 nM | IC50 (Akt-pS473 in U87MG cells): 4 nM

CCN1CC(C)(C)Oc2nc(N3CC4CCC(C3)O4)nc(-c3ccc(NC(=O)NCC4CCN(C)CC4)c(F)c3)c2C1=O [Example 130, 1-{4-[6-Ethyl-8,8-dimethyl-2-(8-oxa-3-azabicyclo[3.2.1]oct-3-yl)-5-oxo-5,6,7,8-tetrahydro-9-oxa-1,3,6-triazabenzocyclohepten-4-yl]-2-fluorophenyl}-3-(1-methylpiperidin-4-ylmethyl)urea]
IC50 [1]: 2120 nM | PI3Ka IC50 (PI3Kα (p110α/p85α)): >10000 nM | IC50 (U87MG tumour cells): > 10000 nM | IC50 (Akt-pS473 in U87MG cells): > 3000 nM

COc1ccc(NC(=O)Nc2ccc(-c3nc(N4C5CCC4COC5)nc4c3C(=O)N(C)CC(C)(C)O4)cc2)nc1 [Example 49, 1-(5-Methoxypyridin-2-yl)-3-{4-[6,8,8-trimethyl-2-(3-oxa-8-azabicyclo[3.2.1]oct-8-yl)-5-oxo-5,6,7,8-tetrahydro-9-oxa-1,3,6-triazabenzocyclohepten-4-yl]phenyl}urea]
IC50 [1]: 32 nM | PI3Ka IC50 (PI3Kα (p110α/p85α)): >10000 nM | IC50 (U87MG tumour cells): 155 nM | IC50 (Akt-pS473 in U87MG cells): 21 nM

CCN1CC(C)(C)Oc2nc(N3CC4CCC(C3)O4)nc(-c3ccc(NC(=O)Nc4ccc(N5CC6CCC(C5)O6)cn4)cc3)c2C1=O [Example 251, 1-{4-[6-Ethyl-8,8-dimethyl-2-(8-oxa-3-azabicyclo[3.2.1]oct-3-yl)-5-oxo-5,6,7,8-tetrahydro-9-oxa-1,3,6-triazabenzocyclohepten-4-yl]phenyl}-3-[5-(8-oxa-3-azabicyclo[3.2.1]oct-3-yl)pyridin-2-yl]urea]
IC50 [1]: 64 nM | PI3Ka IC50 (PI3Kα (p110α/p85α)): >10000 nM | IC50 (U87MG tumour cells): 340 nM | IC50 (Akt-pS473 in U87MG cells): 80 nM

CCN1CC(C)(C)Oc2nc(N3CC4CCC(C3)O4)nc(-c3ccc(NC(=O)Nc4cnn(C)c4)cc3)c2C1=O [Example 126, 1-{4-[6-Ethyl-8,8-dimethyl-2-(8-oxa-3-azabicyclo[3.2.1]oct-3-yl)-5-oxo-5,6,7,8-tetrahydro-9-oxa-1,3,6-triazabenzocyclohepten-4-yl]phenyl}-3-(1-methyl-1H-pyrazol-4-yl)urea]
IC50 [1]: 13 nM | PI3Ka IC50 (PI3Kα (p110α/p85α)): 2963 nM | IC50 (U87MG tumour cells): 225 nM | IC50 (Akt-pS473 in U87MG cells): 68 nM

Cc1ccc(NC(=O)Nc2ccc(-c3nc(N4C5CCC4COC5)nc4c3C(=O)N(C)CC(C)(C)O4)cc2)nc1 [Example 48, 1-(5-Methylpyridin-2-yl)-3-{4-[6,8,8-trimethyl-2-(3-oxa-8-azabicyclo[3.2.1]oct-8-yl)-5-oxo-5,6,7,8-tetrahydro-9-oxa-1,3,6-triazabenzocyclohepten-4-yl]phenyl}urea]
IC50 [1]: 47 nM | PI3Ka IC50 (PI3Kα (p110α/p85α)): >10000 nM | IC50 (U87MG tumour cells): 185 nM | IC50 (Akt-pS473 in U87MG cells): 86 nM

CCN1CC(C)(C)Oc2nc(N3CCOC[C@@H]3C)nc(-c3ccc(NC(=O)Nc4cnc(C)cn4)c(F)c3)c2C1=O [Example 167, 1-{4-[6-Ethyl-8,8-dimethyl-2-((S)-3-methylmorpholin-4-yl)-5-oxo-5,6,7,8-tetrahydro-9-oxa-1,3,6-triazabenzocyclohepten-4-yl]-2-fluorophenyl}-3-(5-methylpyrazin-2-yl)urea]
IC50 [1]: 62 nM | PI3Ka IC50 (PI3Kα (p110α/p85α)): 3520 nM | IC50 (U87MG tumour cells): 500 nM | IC50 (Akt-pS473 in U87MG cells): 158 nM

CCN1CC(C)(C)Oc2nc(N3CC4CCC(C3)O4)nc(-c3ccc(NC(=O)NC)cc3F)c2C1=O [Example 47, 1-{4-[6-Ethyl-8,8-dimethyl-2-(8-oxa-3-azabicyclo[3.2.1]oct-3-yl)-5-oxo-5,6,7,8-tetrahydro-9-oxa-1,3,6-triazabenzocyclohepten-4-yl]-3-fluorophenyl}-3-methylurea]
IC50 [1]: 34 nM | PI3Ka IC50 (PI3Kα (p110α/p85α)): >10000 nM | IC50 (U87MG tumour cells): 564 nM | IC50 (Akt-pS473 in U87MG cells): 151 nM

CCN1CC(C)(C)Oc2nc(N3CC4CCC(C3)O4)nc(-c3ccc(NC(=O)Nc4ccc(OC5CCN(C)CC5)nc4)c(F)c3)c2C1=O [Example 22, 1-{4-[6-ethyl-8,8-dimethyl-2-(8-oxa-3-azabicyclo[3.2.1]oct-3-yl)-5-oxo-5,6,7,8-tetrahydro-9-oxa-1,3,6-triazabenzocyclohepten-4-yl]-2-fluorophenyl}-3-[6-(1-methylpiperidin-4-yloxy)pyridin-3-yl]urea]
IC50 [1]: 76 nM | PI3Ka IC50 (PI3Kα (p110α/p85α)): 3070 nM | IC50 (U87MG tumour cells): 68 nM | IC50 (Akt-pS473 in U87MG cells): 28 nM

CCN1CC(C)(C)Oc2nc(N3CC4CCC(C3)O4)nc(-c3ccc(NC(=O)Nc4ccc(N5CCC(O)C5)cn4)cc3)c2C1=O (centres unmarked) [Example 72, 1-{4-[6-Ethyl-8,8-dimethyl-2-(8-oxa-3-azabicyclo[3.2.1]oct-3-yl)-5-oxo-5,6,7,8-tetrahydro-9-oxa-1,3,6-triazabenzocyclohepten-4-yl]phenyl}-3-[5-(3-hydroxypyrrolidin-1-yl)pyridin-2-yl]urea]
IC50 [1]: 23 nM | PI3Ka IC50 (PI3Kα (p110α/p85α)): >10000 nM | IC50 (U87MG tumour cells): 498 nM | IC50 (Akt-pS473 in U87MG cells): 58 nM
